Read-outs that look alike come from different tables or passages of the source.
Key:
FGFR3 (h) = FGFR3 (h) (Homo sapiens, UniProt P22607); assay: FGFR3 (enzymatic assay), TR-FRET; type: biochemical; details: read-out: FGFR 3 pIC50 (converted)
Excerpt: Time-Resolved Fluorescence Resonance Energy Transfer (TR-FRET) signal (ex340 nm.

FGFR4 (h) = FGFR4 (h) (Homo sapiens, UniProt P22455); assay: FGFR4 (enzymatic assay), TR-FRET; type: biochemical; details: FGFR 4 pIC50, enzymatic assay
[1] = tested on: Ba/F3-FGFR1-transfected cells; assay: Ba/F3-FGFR1 (plus IL3) cellular proliferation assay, counterscreen with 10 ng/ml murine IL3; type: cell-based; details: read-out: BAF3-FGFR1 (PLUS IL3) pIC50 (converted)
In short: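 Proliferation read-out: resazurin-based Alamar Blue fluorescence (540/590 nm) after 4 h, following 24 h compound treatment of 20000 Ba/F3-FGFR1 cells per well in 10% FBS RPMI at 37° C. IL3 counterscreen used the same protocol plus 10 ng/ml murine IL3.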

[2] = biological target: T1, Ba/F3-FGFR3-transfected cells (Homo sapiens, UniProt P22607); assay: Ba/F3-FGFR3 (minus IL3) cellular proliferation assay, Alamar Blue; type: cell-based
T1 construct: BAF3-FGFR3 (MIN IL3) pIC50; other: minus IL3
In short: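 Compound dilutions were dispensed first, then 20000 FGFR3-transfected Ba/F3 cells per well in serum-containing RPMI-1640 were added. After 24 h incubation at 37° C, Alamar Blue was applied for 4 h before relative fluorescence units were recorded. In the minus-IL3 format cells grow without cytokine; the other format contains 10 ng/ml murine IL3.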

[3] = biological target: T2, Ba/F3-KDR-transfected cells (Homo sapiens, UniProt P35968); assay: Ba/F3-KDR (minus IL3) cellular proliferation assay, Alamar Blue; type: cell-based
T2 construct: BAF3-KDR (MIN IL3) pIC50; other: minus IL3
In short: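 Proliferation read-out by Alamar Blue fluorescence (ex. 540 nm, em. 590 nm) after 4 hours, following 24 hours of compound treatment at 37° C of 20000 Ba/F3-KDR cells per well in RPMI-1640/10% FBS. Same protocol with 10 ng/ml murine IL3 serves as counterscreen.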

[4] = average values if tested multiple times
[5] = plus IL3 (10 ng/ml murine IL3, counterscreen)

Chain of FGFR4 (h) (P22455 22-802): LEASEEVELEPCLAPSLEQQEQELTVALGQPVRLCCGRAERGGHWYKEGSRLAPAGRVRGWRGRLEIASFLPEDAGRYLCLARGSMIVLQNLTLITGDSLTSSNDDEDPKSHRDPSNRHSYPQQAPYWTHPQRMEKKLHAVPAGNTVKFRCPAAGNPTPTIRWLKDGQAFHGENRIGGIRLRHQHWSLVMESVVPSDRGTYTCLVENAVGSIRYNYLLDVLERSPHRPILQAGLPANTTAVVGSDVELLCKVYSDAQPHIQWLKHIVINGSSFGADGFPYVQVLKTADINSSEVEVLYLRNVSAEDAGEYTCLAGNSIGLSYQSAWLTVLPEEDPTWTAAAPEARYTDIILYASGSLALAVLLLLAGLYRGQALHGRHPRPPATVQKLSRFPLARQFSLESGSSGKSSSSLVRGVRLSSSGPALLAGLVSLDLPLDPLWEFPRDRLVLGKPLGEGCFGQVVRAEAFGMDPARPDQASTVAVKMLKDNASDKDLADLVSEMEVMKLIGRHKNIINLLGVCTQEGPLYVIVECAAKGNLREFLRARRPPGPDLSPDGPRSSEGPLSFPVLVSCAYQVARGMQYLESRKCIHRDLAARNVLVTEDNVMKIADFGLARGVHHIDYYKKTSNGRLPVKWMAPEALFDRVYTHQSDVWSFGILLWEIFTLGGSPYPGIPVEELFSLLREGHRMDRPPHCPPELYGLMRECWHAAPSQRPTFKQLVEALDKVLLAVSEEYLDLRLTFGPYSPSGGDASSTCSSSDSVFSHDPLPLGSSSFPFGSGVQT
Chain of FGFR3 (h) (P22607 23-806): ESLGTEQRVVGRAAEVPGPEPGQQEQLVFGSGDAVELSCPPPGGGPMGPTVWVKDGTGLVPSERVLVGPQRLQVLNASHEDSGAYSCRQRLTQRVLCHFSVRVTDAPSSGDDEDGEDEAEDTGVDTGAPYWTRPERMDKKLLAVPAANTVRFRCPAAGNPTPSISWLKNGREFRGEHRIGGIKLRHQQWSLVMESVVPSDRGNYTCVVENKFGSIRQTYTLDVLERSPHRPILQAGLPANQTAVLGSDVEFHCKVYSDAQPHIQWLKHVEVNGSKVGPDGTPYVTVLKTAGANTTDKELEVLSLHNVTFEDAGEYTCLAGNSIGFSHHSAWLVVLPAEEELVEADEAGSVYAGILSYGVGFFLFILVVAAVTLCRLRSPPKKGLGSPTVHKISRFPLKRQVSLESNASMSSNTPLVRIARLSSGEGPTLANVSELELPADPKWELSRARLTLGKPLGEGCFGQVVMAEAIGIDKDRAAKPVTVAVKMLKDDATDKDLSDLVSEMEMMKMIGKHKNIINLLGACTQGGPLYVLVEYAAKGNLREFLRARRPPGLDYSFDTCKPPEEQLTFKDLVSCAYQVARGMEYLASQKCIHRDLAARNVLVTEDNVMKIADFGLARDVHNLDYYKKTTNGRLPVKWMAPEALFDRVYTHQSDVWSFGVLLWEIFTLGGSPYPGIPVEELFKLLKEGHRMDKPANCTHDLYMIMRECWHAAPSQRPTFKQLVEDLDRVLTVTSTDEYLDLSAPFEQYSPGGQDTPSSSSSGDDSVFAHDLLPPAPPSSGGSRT
T2 sequence (P35968 whole entry, change not shown): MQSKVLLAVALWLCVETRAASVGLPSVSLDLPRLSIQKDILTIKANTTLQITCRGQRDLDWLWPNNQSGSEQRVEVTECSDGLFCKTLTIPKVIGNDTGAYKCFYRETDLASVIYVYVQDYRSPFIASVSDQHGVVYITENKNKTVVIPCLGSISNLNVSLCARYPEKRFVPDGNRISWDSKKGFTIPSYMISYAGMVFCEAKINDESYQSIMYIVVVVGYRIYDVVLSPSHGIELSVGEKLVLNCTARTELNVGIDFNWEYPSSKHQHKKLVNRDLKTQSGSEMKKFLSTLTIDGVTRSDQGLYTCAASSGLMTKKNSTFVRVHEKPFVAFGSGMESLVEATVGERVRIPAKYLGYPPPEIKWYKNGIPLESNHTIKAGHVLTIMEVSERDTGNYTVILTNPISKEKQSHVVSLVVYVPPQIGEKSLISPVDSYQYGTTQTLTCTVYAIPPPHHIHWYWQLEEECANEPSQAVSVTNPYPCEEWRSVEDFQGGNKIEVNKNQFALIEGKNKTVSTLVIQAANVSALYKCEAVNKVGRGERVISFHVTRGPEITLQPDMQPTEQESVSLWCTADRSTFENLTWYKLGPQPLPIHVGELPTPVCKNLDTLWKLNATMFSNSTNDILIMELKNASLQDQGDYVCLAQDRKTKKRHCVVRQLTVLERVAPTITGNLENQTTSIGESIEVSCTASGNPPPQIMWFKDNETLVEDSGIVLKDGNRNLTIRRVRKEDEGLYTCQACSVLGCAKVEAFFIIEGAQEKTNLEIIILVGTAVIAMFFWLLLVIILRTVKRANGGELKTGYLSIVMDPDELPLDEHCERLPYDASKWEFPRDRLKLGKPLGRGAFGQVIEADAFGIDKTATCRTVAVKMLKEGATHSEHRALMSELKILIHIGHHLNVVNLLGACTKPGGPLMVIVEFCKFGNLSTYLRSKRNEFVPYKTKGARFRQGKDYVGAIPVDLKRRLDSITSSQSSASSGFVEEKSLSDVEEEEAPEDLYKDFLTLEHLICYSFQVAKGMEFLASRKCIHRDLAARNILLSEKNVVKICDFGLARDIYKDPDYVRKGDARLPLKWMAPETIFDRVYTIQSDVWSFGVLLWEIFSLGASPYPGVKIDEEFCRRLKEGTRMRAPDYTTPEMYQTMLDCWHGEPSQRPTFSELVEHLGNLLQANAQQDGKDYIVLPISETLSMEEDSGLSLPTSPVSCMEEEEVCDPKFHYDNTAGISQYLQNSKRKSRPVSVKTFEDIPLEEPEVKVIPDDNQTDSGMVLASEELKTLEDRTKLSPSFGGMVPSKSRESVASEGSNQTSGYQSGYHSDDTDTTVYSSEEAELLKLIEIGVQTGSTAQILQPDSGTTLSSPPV
T1 sequence (P22607 whole entry, change not shown): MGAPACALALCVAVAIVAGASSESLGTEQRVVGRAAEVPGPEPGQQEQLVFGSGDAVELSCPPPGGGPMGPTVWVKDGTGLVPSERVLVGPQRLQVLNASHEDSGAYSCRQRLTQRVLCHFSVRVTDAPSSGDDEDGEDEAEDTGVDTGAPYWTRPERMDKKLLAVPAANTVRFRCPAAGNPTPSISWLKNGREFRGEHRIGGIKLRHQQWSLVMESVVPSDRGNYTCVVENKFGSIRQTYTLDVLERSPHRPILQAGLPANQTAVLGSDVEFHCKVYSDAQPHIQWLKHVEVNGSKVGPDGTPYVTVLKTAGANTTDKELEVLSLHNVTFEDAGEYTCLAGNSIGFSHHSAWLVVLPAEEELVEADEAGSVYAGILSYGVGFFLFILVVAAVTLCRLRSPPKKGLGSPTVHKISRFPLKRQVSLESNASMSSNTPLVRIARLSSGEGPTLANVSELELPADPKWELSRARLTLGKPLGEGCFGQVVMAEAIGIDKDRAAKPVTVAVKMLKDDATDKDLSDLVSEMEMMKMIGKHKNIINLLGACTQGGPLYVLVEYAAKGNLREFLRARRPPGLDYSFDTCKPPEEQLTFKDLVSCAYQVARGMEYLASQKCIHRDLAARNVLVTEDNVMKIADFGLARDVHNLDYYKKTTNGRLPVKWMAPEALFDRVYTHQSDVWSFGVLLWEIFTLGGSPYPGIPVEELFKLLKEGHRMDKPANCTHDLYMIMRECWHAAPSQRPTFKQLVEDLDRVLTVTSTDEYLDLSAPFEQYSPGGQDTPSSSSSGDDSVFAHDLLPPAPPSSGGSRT

SMILES | IC50 (FGFR3 (h); [4]) | IC50 (FGFR4 (h); [4]) | IC50 [1, 5] | BAF3-FGFR3 (MIN IL3) pIC50 [2] | BAF3-KDR (MIN IL3) pIC50 [3] | melting point | IC50 [1] | IC50 (FGFR3 (h)) | IC50 (FGFR4 (h))
COCC(O)CN(c1ccc2ncc(-c3cnn(C)c3)nc2n1)c1cc(OC)cc(OC)c1F (single isomer, unassigned) [Compound 58] | 1.26 nM | 2.14 nM | > 10000 nM | 7.43 | 5.97 | 94 to 95 °C |  |  | 
COc1cc(OC)c(F)c(N(c2ccc3ncc(-c4cnn(C)c4)nc3n2)C(CO)COC(C)C)c1 (single isomer, unassigned) [Compound 76] | 105 nM | 214 nM | > 10000 nM | 5.64 | <5 | 137 to 138 °C |  |  | 
COc1cc(/N=c2\ccc3ncc(-c4cnn(C)c4)nc3n2CC(O)COC(C)C)c(F)c(OC)c1 (single isomer, unassigned) [Compound 77] | 1.78 nM | 3.02 nM | > 10000 nM | 7.38 | 5.33 | 96 to 97 °C |  |  | 
COc1cc(OC)c(Cl)c(/N=c2\ccc3ncc(-c4cnn(C)c4)nc3n2CC2CCC(=O)N2)c1Cl (single isomer, unassigned) [Compound 87] | 4.57 nM | 38.9 nM | > 9120 nM | ~6.93 | 5.45 | 160 °C |  |  | 
COc1ccc(Cl)c(/N=c2\ccc3ncc(-c4cnn(C)c4)nc3n2CC2CCC(=O)N2)c1Cl (single isomer, unassigned) [Compound 89] | 97.7 nM | ~1120 nM | > 10000 nM | 5.14 | <5 | 183 °C |  |  | 
COc1cc(OC)c(F)c(N(CC2COC(=O)N2)c2ccc3ncc(-c4cnn(C)c4)nc3n2)c1 (single isomer, unassigned) [Compound 111] | 1 nM | 1.58 nM | > 10000 nM | 7.58 | 5.61 | 202 °C |  |  | 
CNCCN(c1ccc2ncc(-c3cnn(C)c3)nc2n1)c1c(F)c(OC)cc(OC)c1F [Compound 3] | 2.57 nM | 6.46 nM | > 10000 nM | ~8.04 | 6.48 | 159 °C |  |  | 
CNCCn1/c(=N/c2c(F)cccc2F)ccc2ncc(-c3cnn(C)c3)nc21 [Compound 44] | ~794 nM | 2820 nM | > 10000 nM | <5 | <5 | 80 °C |  |  | 
COc1cc(/N=c2\ccc3ncc(-c4cnn(C)c4)nc3n2CC2CCC(=O)N2)c(F)c(OC)c1 (stereo not drawn) [Compound 45] | 1.35 nM | 3.98 nM | > 10000 nM | 7.07 | ~5.96 | 127 °C |  |  | 
COc1cc(OC)cc(N(CC2CCC(=O)N2)c2ccc3ncc(-c4cnn(C)c4)nc3n2)c1 (stereo not drawn) [Compound 49] | 1.62 nM | 6.31 nM | > 10000 nM | ~6.85 | 5.16 | 182 °C |  |  | 
COCC(O)CN(c1ccc2ncc(-c3cnn(C)c3)nc2n1)c1c(F)c(OC)cc(OC)c1F (stereo not drawn) [Compound 50] | 3.63 nM | 3.24 nM | > 10000 nM | ~8.11 | 6.23 | 162 to 163 °C |  |  | 
COCC(O)Cn1c(=Nc2c(F)c(OC)cc(OC)c2F)ccc2ncc(-c3cnn(C)c3)nc21 (stereo not drawn) [Compound 51] | 0.501 nM | 0.525 nM | > 10000 nM | ~8.03 | 5.93 | 180 °C |  |  | 
COc1cc(OC)c(F)c(/N=c2\ccc3ncc(-c4cnn(C)c4)nc3n2CCCN2CCCC2=O)c1F [Compound 55] | 0.49 nM | 0.447 nM | 7760 nM | 8.19 | 7.13 | 227 °C |  |  | 
COc1cc(OC)cc(N(Cc2nc[nH]n2)c2ccc3ncc(-c4cnn(C)c4)nc3n2)c1 [Compound 71] | 0.776 nM | 1.62 nM |  | 7.71 | 6.03 | 238 °C | > 10000 nM |  | 
COc1cc(O)cc(N(Cc2ncc[nH]2)c2ccc3ncc(-c4cnn(C)c4)nc3n2)c1F [Compound 95] | 0.447 nM | 0.537 nM | 7410 nM | ~8.46 | 6.85 | 218 °C |  |  | 
COc1cc(OC)c(Cl)c(N(C[C@H]2CCC(=O)N2)c2ccc3ncc(-c4cnn(C)c4)nc3n2)c1Cl [Compound 97] | 4.68 nM | 26.3 nM | > 10000 nM | ~6.83 | 5.35 | 150 °C |  |  | 
COc1cc(O)cc(N(Cc2ncc[nH]2)c2ccc3ncc(-c4cnn(C)c4)nc3n2)c1 [Compound 103] | 0.417 nM | 0.741 nM | > 8510 nM | ~8.00 | 6.40 | 172 °C |  |  | 
COc1cc(OC)cc(N(CC2CCCCO2)c2ccc3ncc(-c4cnn(C)c4)nc3n2)c1 (stereo not drawn) [Compound 129] |  |  | > 10000 nM | ~7.15 | 5.33 | 137 °C |  | 2.69 nM | 7.76 nM
COc1cc(OC)c(F)c(N(CC2CCCCO2)c2ccc3ncc(-c4cnn(C)c4)nc3n2)c1 (stereo not drawn) [Compound 139] |  |  | > 10000 nM | 7.38 | 5.33 | 94 °C |  | 2.75 nM | 4.17 nM
COc1cc(OC)c(F)c(N(Cc2nn[nH]n2)c2ccc3ncc(-c4cnn(C)c4)nc3n2)c1 [Compound 140] |  |  | > 10000 nM | <5 | <5 | 149 °C |  | 5.62 nM | 11.7 nM

— US9309242B2, “Substituted pyrido[2,3-b]pyrazines as FGFR kinase inhibitors” (priority 2011, dated 2016)
